Data reported in patent US5532229A, “Topical administration of vitamin D to mammals” (priority 1994, dated 1996).
Entries after “also recorded” stand apart in the source; their conditions may differ.

Assays:
[1] = Experiment 2: uptake of [14C]-vitamin D3 tracer into serum and conversion to [14C]-25(OH)D3; type: in vivo, Male Wistar rats; conditions: tracer added to last day's dose
Experimental: One dose of [carbon-14]-labelled vitamin D3 was given at the time of the last of 14 daily doses of nonradioactive vitamin D3. The graphs show the uptake and metabolism of one [^14 C]-vitamin D3 dose during the course of gastric or dermal supplementation with vitamin D3. The tracer was given in addition to the usual, 8 μg/day vitamin D3 dose, and by the same route. Radioactivity in serum was isolated by chromatography to measure that which elutes as vitamin D3, or as […], Each point is the mean of results from six rats;
Uptake of radioactive vitamin D3 from skin or gut during the longer term treatment with vitamin D3 at 20 nmol/day.
The previous experiment 1 involved only one acute dose of a minute, tracer amount of vitamin D3. It remained possible that dermal application could not deliver a larger, more nutritionally relevant amount of vitamin D3. This experiment 2 looked at what happens when vitamin D3 is given during the course of daily treatment with a moderate amount of vitamin D3.
After 30 days, the rats were divided into three groups of 6: one group continued with no supplement, one group was given daily vitamin D3 supplement, 8 μg/day either by gastric tube, the third received the supplement by application to the skin in 50 μL ethanol. Vitamin D3 was given for 3 wk. The day before the rats were killed, the vitamin D3 dose was supplemented with [^14 C]-labelled vitamin D3, 915,000 cpm per rat. Blood was obtained from the tail of each rat at 3 h, 9 h, and by heart puncture when the rats were anesthetized for killing, 24 h after giving the tracer. The blood was extracted and chromatographed to distinguish [^14 C]-vitamin D3 from the [^14 C]-25(OH)D3generated from it. Radioactivity was also measured in the liver, kidney, and adipose tissue. Serum nonradioactive 25(OH)D3 was also measured.

[2] = Experiment 3: serum 1,25(OH)2 D3 during changes in dietary calcium; type: in vivo, Male Wistar rats
Excerpt: Efficacy in the long-term: ability of oral and dermal vitamin D3 delivery to influence serum 1,25(OH)2 D3 levels in response to changes in dietary calcium.
Male, Wistar rats were obtained at 120-130 g, and placed on a 0.01% calcium, 0.7% phosphate diet that was vitamin D deficient (Teklad Test Diets, Madison, WI) this was for one week to help deplete vitamin D stores. For the next three weeks the rats were fed the vitamin D-deficient diet, but with normal, 0.5%, calcium. […]
Biochemical measurements. 1,25(OH)2 D3 in serum was measured by calf-thymus receptor-binding assay after initial purification of 1,25(OH)2 D3 with C18-OH cartridges (5). For the serum volumes that were minimal, serum was measured out in 50 μL increments, and the final result was adjusted for the volume of sample analyzed. […] The material eluting as 1,25(OH)2 D3 was evaporated and redissolved in acetonitrile: water for further purification with C18-OH cartridges and quantitation by thymus receptor assay, as described for serum. […]

With `C=C1CC[C@H](O)C/C1=C/C=C1\CCC[C@]2(C)[C@@H]([C@H](C)CCCC(C)C)CC[C@@H]12` [vitamin D3] the “rate of uptake into circulation, dermal vs gastric” value [1] was “more slowly when given via the dermal route”, the “difference between the two routes in suppression of serum 1,25(OH)2 D3 levels” value ([2]; 20 nmol/250 g/day) was “no significant difference between the two routes” and the “serum 1,25(OH)2 D3, effect of supplementation” value ([2]; 8 μg/day, gastric or dermal, all levels of calcium intake) was “lower serum 1,25(OH)2 D3 concentrations; also recorded: lower serum 1,25(OH)2 D3 at every level of calcium intake”.
